# Reference: patent US8648089B2, “1,3,6-substituted indole derivatives having inhibitory activity for protein kinase” (Korea Institute of Science and Technology, priority 2009, dated 2014)
# Test system: A375 melanoma cells
# Assay: not given
# Settings: read-out: proliferation of A375 melanoma cells IC50; cited from earlier work
row,Compound,IC50 [µM]
1,CCCS(=O)(=O)Nc1ccc(F)c(C(=O)c2c[nH]c3ncc(Cl)cc23)c1F [PLX4720],0.5

# Test system: not given
# Assay: not given
# Settings: 600 mg twice a day, clinical; cited from earlier work
row,Compound,skin toxicity on administration
1,"CNC(=O)c1cc(Oc2ccc(NC(=O)Nc3ccc(Cl)c(C(F)(F)F)c3)cc2)ccn1 [sorafenib, Sorafenib]",grade 3 skin toxicity

# Test system: A375P cells
# Assay: Inhibitory activity against proliferation of A375P melanoma cells (MTT assay)
# Type: cell-based
# Settings: A375P human melanoma cells with B-Raf-V600E
# Procedure: Measurement of Inhibitory Activity Against Proliferation of A375P Melanoma Cells
# A375P cells purchased from ATCC were cultured in DMEM [10% FBS, 1% penicillin/streptomycin] at 37° C. in the presence of 5% CO2. The cultured A375P cells were harvested with 0.05% trypsin-0.02% EDTA and seeded in a 96-well plate at 5×10^3 cells per well.
# 3-(4,5-Dimethylthiazol-2-yl)-2,5-diphenyltetrazolium bromide (MTT) assay (CellTiter 96 Assay, Promega) was employed to measure cell viability. After adding 15 μL of a dye per well and culturing for 2 hours, the cells were treated with 100 μL of a stop solution and absorbance was measured 24 hours later. The test compound was treated a day after plating. The test compound had been sequentially diluted at 12 concentrations from a 10 mM stock solution using sterilized dimethylsulfoxide (DMSO) and treated with an amount of 0.5 μL. Absorbance at 590 nm was recorded using EnVision2103, and GI50 value was calculated using GraphPad Prism 4.0 software.
# The inhibitory activity against proliferation of the A375P cells of some typical compounds according to the present invention is given in Table 2.
row,GI50 [µM],Compound
1,< 10,"CNc1cc(-n2cc(-c3ccc(C(=O)NCCN4CCOCC4)cc3)c3ccc(-c4ccc(OC)cc4)cc32)ncn1 [Example 31, 4-(6-(4-methoxyphenyl)-1-(6-(methylamino)pyrimidin-4-yl)-1H-indol-3-yl)-N-(2-morpholinoethyl)benzamide]"
2,< 10,"CNc1cc(-n2cc(-c3ccc(OC)cc3)c3ccc(-c4cccc(NC(=O)Nc5ccc(Cl)c(C(F)(F)F)c5)c4)cc32)ncn1 [Example 37, 1-(4-chloro-3-(trifluoromethyl)phenyl)-3-(3-(3-(4-methoxyphenyl)-1-(6-(methylamino)pyrimidin-4-yl)-1H-indol-6-yl)phenyl)urea]"
3,< 10,"CNc1cc(-n2cc(-c3ccc(OC)cc3)c3ccc(-c4cccc(NC(=O)Nc5ccccc5OC)c4)cc32)ncn1 [Example 39, 1-(2-methoxyphenyl)-3-(3-(3-(4-methoxyphenyl)-1-(6-(methylamino)pyrimidin-4-yl)-1H-indol-6-yl)phenyl)urea]"
4,< 10,4-(6-(4-methoxyphenyl)-1-(6-(methylamino)pyrimidin-4-yl)-1H-indol-3-yl)benzoate [Example 30]
5,< 10,"CNc1cc(-n2cc(-c3cccc(N)c3)c3ccc(-c4ccc(OC)cc4)cc32)ncn1 [Example 27, 6-(3-(3-aminophenyl)-6-(4-methoxyphenyl)-1H-indol-1-yl)-N-methylpyrimidin-4-amine]"
6,< 10,"COc1ccc(-c2cn(-c3ccncc3)c3cc(N4CCNCC4)ccc23)cc1 [Example 14, 3-(4-methoxyphenyl)-6-(piperazin-1-yl)-1-(pyridin-4-yl)-1H-indole]"
7,< 10,"CNc1cc(-n2cc(-c3cccc([N+](=O)[O-])c3)c3ccc(-c4ccc(OC)cc4)cc32)ncn1 [Example 26, 6-(6-(4-methoxyphenyl)-3-(3-nitrophenyl)-1H-indol-1-yl)-N-methylpyrimidin-4-amine]"
8,< 10,"CNc1cc(-n2cc(-c3cccc(NC(C)=O)c3)c3ccc(-c4ccc(OC)cc4)cc32)ncn1 [Example 28, N-(3-(6-(4-methoxyphenyl)-1-(6-(methylamino)pyrimidin-4-yl)-1H-indol-3-yl)phenyl)acetamide]"
9,< 10,"O=[N+]([O-])c1cccc(-c2ccc3c(Br)cn(-c4cc(Cl)ncn4)c3c2)c1 [Example 9, 3-bromo-1-(6-chloropyrimidin-4-yl)-6-(3-nitrophenyl)-1H-indole]"
10,< 10,"COc1ccc(-c2cn(-c3ccnc([S+](C)[O-])n3)c3cc(-c4cccc([N+](=O)[O-])c4)ccc23)cc1 (stereo not drawn) [Example 33, 3-(4-methoxyphenyl)-1-(2-(methylsulfinyl)pyrimidin-4-yl)-6-(3-nitrophenyl)-1H-indole]"
11,< 10,"COc1ccc(-c2cn(-c3ccncc3)c3cc(N4CCN(C(=O)OC(C)(C)C)CC4)ccc23)cc1 [Example 13, tert-butyl 4-(3-(4-methoxyphenyl)-1-(pyridin-4-yl)-1H-indol-6-yl)piperazine-1-carboxylate]"
12,< 10,"CNc1cc(-n2cc(-c3cccc(NC(=O)Nc4ccc(Cl)c(C(F)(F)F)c4)c3)c3ccc(-c4ccc(OC)cc4)cc32)ncn1 [Example 45, 1-(4-chloro-3-(trifluoromethyl)phenyl)-3-(3-(6-(4-methoxyphenyl)-1-(6-(methylamino)pyrimidin-4-yl)-1H-indol-3-yl)phenyl)urea]"

# Molecular target: B-Raf-V600E kinase (Homo sapiens, UniProt P15056, V600E)
# Sequence (P15056 whole entry V600E): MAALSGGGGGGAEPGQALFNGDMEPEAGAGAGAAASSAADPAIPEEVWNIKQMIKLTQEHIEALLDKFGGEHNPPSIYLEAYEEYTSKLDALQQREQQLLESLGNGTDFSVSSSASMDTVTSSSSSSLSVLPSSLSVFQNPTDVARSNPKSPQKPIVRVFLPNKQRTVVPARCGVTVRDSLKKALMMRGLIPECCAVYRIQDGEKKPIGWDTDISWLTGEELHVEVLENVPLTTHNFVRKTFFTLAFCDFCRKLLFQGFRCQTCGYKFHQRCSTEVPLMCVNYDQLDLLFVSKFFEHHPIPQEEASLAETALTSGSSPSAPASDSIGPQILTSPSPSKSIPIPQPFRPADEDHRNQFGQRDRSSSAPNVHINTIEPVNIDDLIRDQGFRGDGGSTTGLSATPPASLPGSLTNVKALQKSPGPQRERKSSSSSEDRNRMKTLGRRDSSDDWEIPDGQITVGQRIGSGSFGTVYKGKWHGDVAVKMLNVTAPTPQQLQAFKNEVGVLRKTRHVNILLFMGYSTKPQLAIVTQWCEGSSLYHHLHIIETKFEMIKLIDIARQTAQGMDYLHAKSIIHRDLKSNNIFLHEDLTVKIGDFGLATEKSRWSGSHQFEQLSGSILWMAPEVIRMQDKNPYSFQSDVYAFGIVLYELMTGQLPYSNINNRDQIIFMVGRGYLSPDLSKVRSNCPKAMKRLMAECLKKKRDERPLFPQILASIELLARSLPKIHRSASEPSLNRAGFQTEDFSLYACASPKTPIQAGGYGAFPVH
# Assay: B-Raf kinase activity (kinase cascade assay)
# Type: biochemical
# Settings: MEK1/Erk2/MBP, [γ-32P] ATP, read-out: B-Raf-V600E kinase inhibitory activity (IC50)
# Procedure: Measurement of B-Raf Kinase Activity (Kinase Cascade Assay)
# (1) Activation of MAP Kinase 2/Erk2 by B-Raf
# Magnesium/ATP solution (500 μM ATP, 75 mM magnesium chloride) was prepared (10 μL). Diluted B-Raf-V600E enzyme (2.5 μL) was added at a final concentration of 1 ng/mL. and inactivated MEK1 (1.6 μL) was added at a final concentration of 0.4 μg/mL. Then, inactivated MAP Kinase 2/Erk2 (4 μL) was added at a final concentration of 1.0 μg/mL. The test compound was prepared at a concentration of 10 mM in dimethylsulfoxide (DMSO) and diluted to various concentrations (DMSO 2.6%). The final volume was adjusted to 38 μL by adding Assay Dilution Butter I (ADBI) and the mixture was allowed to react at 30° C. for 30 minutes. 5 μL of the mixture solution was taken to perform the next process.
# (2) Phosphorylation of Myelin Basic Protein (MBP)
# The mixture solution (5 μL) was treated with assay dilution buffer (10 μL) and then with myelin basic protein (MBP, 2 mg/mL, 10 μL). [γ-32P] ATP (100 μCi/container) diluted to 1/10 was added in 10 μL aliquots. After reaction at 30° C. for […] and then placing P81 paper in a scintillation vial, spotting was performed slowly using 25 μL of the reaction mixture. After washing 4 times with 0.75% phosphoric acid for 10 minutes and washing once with acetone for 5 minutes, 5 mL of scintillation cocktail was added to the scintillation vial. Signals were recorded using a scintillation counter.
row,IC50 [µM],Compound
1,< 10,"CNc1cc(-n2cc(-c3ccc(OC)cc3)c3ccc(-c4cccc(NC(=O)Nc5ccccc5OC)c4)cc32)ncn1 [Example 39, 1-(2-methoxyphenyl)-3-(3-(3-(4-methoxyphenyl)-1-(6-(methylamino)pyrimidin-4-yl)-1H-indol-6-yl)phenyl)urea]"
2,< 10,4-(6-(4-methoxyphenyl)-1-(6-(methylamino)pyrimidin-4-yl)-1H-indol-3-yl)benzoate [Example 30]
3,< 10,"CNc1cc(-n2cc(-c3cccc(N)c3)c3ccc(-c4ccc(OC)cc4)cc32)ncn1 [Example 27, 6-(3-(3-aminophenyl)-6-(4-methoxyphenyl)-1H-indol-1-yl)-N-methylpyrimidin-4-amine]"
4,< 10,"CC(=O)Nc1cccc(-c2ccc3c(-c4ccc(OCCN(C)C)cc4)cn(-c4ccncc4)c3c2)c1 [Example 25, N-(3-(3-(4-(2-(dimethylamino)ethoxy)phenyl)-1-(pyridin-4-yl)-1H-indol-6-yl)phenyl)acetamide]"
